# Results reported in PubChem BioAssay (NCI).
#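 Following 48 hours of exposure in 96-well plates, responses at five concentrations were used to interpolate endpoints linearly. The concentration for 50% growth inhibition is given as GI50. TGI denotes the concentration required for complete inhibition of growth.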
# What was measured:
# Experiment in all cases: growth of human tumour cells (NCI), 48 h
# [1] = test system: EKVX NSCLC
# [2] = test system: OVCAR-8 ovarian
# [3] = test system: PC-3 prostate
# [4] = test system: RXF 393 renal
# [5] = test system: NCI-H23 lung
# [6] = test system: UACC-62 melanoma
# [7] = test system: A498 renal
# [8] = test system: HCT-116 colon
# [9] = test system: NCI-H460 lung
# [10] = test system: MDA-MB-435
# [11] = test system: UO-31 renal
# [12] = test system: TK-10 renal
# [13] = test system: OVCAR-4 ovarian
# [14] = test system: SF-539 CNS
# [15] = test system: SF-268 CNS
# [16] = test system: SK-OV-3 ovarian
# [17] = test system: U251 CNS
# [18] = test system: OVCAR-5 ovarian
# [19] = test system: HCT-15 colon
# [20] = test system: CAKI-1 renal
# [21] = test system: IGROV1 ovarian
# [22] = test system: SNB-75 CNS
# [23] = test system: MCF7 breast
# [24] = test system: 786-0 renal
# [25] = test system: HOP-92 NSCLC
# [26] = test system: SN12C renal
# [27] = test system: NCI-H522 lung
# [28] = test system: MALME-3M melanoma
# [29] = test system: SNB-19 CNS
# [30] = test system: HOP-62 NSCLC
# [31] = test system: CCRF-CEM leukemia
# [32] = test system: HT29 colon
# [33] = test system: BT-549 breast
# [34] = test system: NCI/ADR-RES ovarian
# [35] = test system: SK-MEL-2 melanoma
# [36] = test system: K-562 leukemia
# [37] = test system: SK-MEL-5 melanoma
# [38] = test system: LOX IMVI melanoma
# [39] = test system: SW-620 colon
# [40] = test system: T-47D breast
# [41] = test system: MOLT-4 leukemia
# [42] = test system: HL-60(TB) leukemia
# [43] = test system: DU-145 prostate
# [44] = test system: SR leukemia
# [45] = test system: KM12 colon
# [46] = test system: COLO 205 colon
# [47] = test system: OVCAR-3 ovarian
# [48] = test system: SK-MEL-28 melanoma
# [49] = test system: MDA-MB-231 breast
# [50] = test system: NCI-H226 lung
# [51] = test system: A549 NSCLC
# [52] = test system: M14 melanoma
# [53] = test system: HCC-2998 colon
# [54] = test system: RPMI-8226 leukemia
# [55] = test system: HS 578T breast
# [56] = test system: ACHN renal
compound,measurement,setting,value
COc1ccc(-c2cc(-c3ccc(Cl)cc3)c(C#N)c(=O)n2CCCCCC(=O)Nc2ccccc2N)cc1,GI50,[1],3.44 µM
same,TGI,[1],61.1 µM
same,GI50,[2],4.31 µM
same,TGI,[2],> 100 µM
same,GI50,[3],3.05 µM
same,TGI,[3],31 µM
same,GI50,[4],1.77 µM
same,TGI,[4],5.68 µM
same,GI50,[5],6.04 µM
same,TGI,[5],27.3 µM
same,GI50,[6],2.4 µM
same,TGI,[6],8.56 µM
same,GI50,[7],1.37 µM
same,TGI,[7],19.2 µM
same,GI50,[8],3.8 µM
same,TGI,[8],> 100 µM
same,GI50,[9],3.42 µM
same,TGI,[9],27.2 µM
same,GI50,[10],3.69 µM
same,TGI,[10],18.7 µM
same,GI50,[11],3.96 µM
same,TGI,[11],> 100 µM
same,GI50,[12],28.5 µM
same,TGI,[12],> 100 µM
same,GI50,[13],6.48 µM
same,TGI,[13],> 100 µM
same,GI50,[14],9.29 µM
same,TGI,[14],> 100 µM
same,GI50,[15],14.9 µM
same,TGI,[15],> 100 µM
same,GI50,[16],5.36 µM
same,TGI,[16],38.4 µM
same,GI50,[17],6.19 µM
same,TGI,[17],> 100 µM
same,GI50,[18],10.9 µM
same,TGI,[18],> 100 µM
same,GI50,[19],2.78 µM
same,TGI,[19],10.4 µM
same,GI50,[20],2.04 µM
same,TGI,[20],5.97 µM
same,GI50,[21],4.22 µM
same,TGI,[21],> 100 µM
same,GI50,[22],1.4 µM
same,TGI,[22],5.83 µM
same,GI50,[23],3.25 µM
same,TGI,[23],> 100 µM
same,GI50,[24],4.49 µM
same,TGI,[24],> 100 µM
same,GI50,[25],1.96 µM
same,TGI,[25],9.93 µM
same,GI50,[26],7.66 µM
same,TGI,[26],> 100 µM
same,GI50,[27],4.43 µM
same,TGI,[27],> 100 µM
same,GI50,[28],3.19 µM
same,TGI,[28],20.3 µM
same,GI50,[29],23.1 µM
same,TGI,[29],> 100 µM
same,GI50,[30],3.49 µM
same,TGI,[30],52.1 µM
same,GI50,[31],4.84 µM
same,TGI,[31],> 100 µM
same,GI50,[32],3.56 µM
same,TGI,[32],> 100 µM
same,GI50,[33],4.49 µM
same,TGI,[33],43.7 µM
same,GI50,[34],3.99 µM
same,TGI,[34],> 100 µM
same,GI50,[35],4.68 µM
same,TGI,[35],33.1 µM
same,GI50,[36],3.37 µM
same,TGI,[36],> 100 µM
same,GI50,[37],1.93 µM
same,TGI,[37],3.73 µM
same,GI50,[38],1.64 µM
same,TGI,[38],3.45 µM
same,GI50,[39],3.87 µM
same,TGI,[39],> 100 µM
same,GI50,[40],3.33 µM
same,TGI,[40],> 100 µM
same,GI50,[41],5.16 µM
same,TGI,[41],> 100 µM
same,GI50,[42],2.6 µM
same,TGI,[42],7.12 µM
same,GI50,[43],10.6 µM
same,TGI,[43],> 100 µM
same,GI50,[44],2.02 µM
same,TGI,[44],> 100 µM
same,GI50,[45],4.58 µM
same,TGI,[45],27 µM
same,GI50,[46],3.15 µM
same,TGI,[46],33.2 µM
same,GI50,[47],5 µM
same,TGI,[47],25.3 µM
same,GI50,[48],3.88 µM
same,TGI,[48],97.8 µM
same,GI50,[49],7.12 µM
same,TGI,[49],> 100 µM
same,GI50,[50],4.58 µM
same,TGI,[50],78.9 µM
same,GI50,[51],4.06 µM
same,TGI,[51],> 100 µM
same,GI50,[52],2.44 µM
same,TGI,[52],6.57 µM
same,GI50,[53],4.02 µM
same,TGI,[53],36.5 µM
same,GI50,[54],1.43 µM
same,TGI,[54],7.28 µM
same,GI50,[55],3.06 µM
same,TGI,[55],29.7 µM
same,GI50,[56],4.18 µM
same,TGI,[56],> 100 µM
